Laboratory results taken from US9006450B2 (Boehringer Ingelheim International GmbH, priority 2010, dated 2015).

Biological target: T1, human ACC2 (Homo sapiens, UniProt O00763)
T1 construct: made in house; host or cells: insect cells (baculoviral expression system)
Assay: ACC2 assay, spectrophotometric 384 well assay (NADH-linked, coupled lactate dehydrogenase/pyruvate kinase)
Assay type: biochemical
Details: ACC2 assay, hACC2 construct lacking 128 N-terminal amino acids, 25° C., 340 nm; read-out: IC50
How it was run: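 Human ACC2 lacking N-terminal 128 aa, baculovirus/insect-cell expressed, anion-exchange purified; 100 mM Tris pH 7.5, 10 mM citrate, 25 mM KHCO3, 1% DMSO. Started with 200 μM NADH and acetyl-CoA plus 500 μM ATP; PK/LDH-coupled A340 decrease read 15 min at 25° C. IC50 by nonlinear fit of low-control-subtracted slopes.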

T1 sequence (O00763 129-2458 limits assumed): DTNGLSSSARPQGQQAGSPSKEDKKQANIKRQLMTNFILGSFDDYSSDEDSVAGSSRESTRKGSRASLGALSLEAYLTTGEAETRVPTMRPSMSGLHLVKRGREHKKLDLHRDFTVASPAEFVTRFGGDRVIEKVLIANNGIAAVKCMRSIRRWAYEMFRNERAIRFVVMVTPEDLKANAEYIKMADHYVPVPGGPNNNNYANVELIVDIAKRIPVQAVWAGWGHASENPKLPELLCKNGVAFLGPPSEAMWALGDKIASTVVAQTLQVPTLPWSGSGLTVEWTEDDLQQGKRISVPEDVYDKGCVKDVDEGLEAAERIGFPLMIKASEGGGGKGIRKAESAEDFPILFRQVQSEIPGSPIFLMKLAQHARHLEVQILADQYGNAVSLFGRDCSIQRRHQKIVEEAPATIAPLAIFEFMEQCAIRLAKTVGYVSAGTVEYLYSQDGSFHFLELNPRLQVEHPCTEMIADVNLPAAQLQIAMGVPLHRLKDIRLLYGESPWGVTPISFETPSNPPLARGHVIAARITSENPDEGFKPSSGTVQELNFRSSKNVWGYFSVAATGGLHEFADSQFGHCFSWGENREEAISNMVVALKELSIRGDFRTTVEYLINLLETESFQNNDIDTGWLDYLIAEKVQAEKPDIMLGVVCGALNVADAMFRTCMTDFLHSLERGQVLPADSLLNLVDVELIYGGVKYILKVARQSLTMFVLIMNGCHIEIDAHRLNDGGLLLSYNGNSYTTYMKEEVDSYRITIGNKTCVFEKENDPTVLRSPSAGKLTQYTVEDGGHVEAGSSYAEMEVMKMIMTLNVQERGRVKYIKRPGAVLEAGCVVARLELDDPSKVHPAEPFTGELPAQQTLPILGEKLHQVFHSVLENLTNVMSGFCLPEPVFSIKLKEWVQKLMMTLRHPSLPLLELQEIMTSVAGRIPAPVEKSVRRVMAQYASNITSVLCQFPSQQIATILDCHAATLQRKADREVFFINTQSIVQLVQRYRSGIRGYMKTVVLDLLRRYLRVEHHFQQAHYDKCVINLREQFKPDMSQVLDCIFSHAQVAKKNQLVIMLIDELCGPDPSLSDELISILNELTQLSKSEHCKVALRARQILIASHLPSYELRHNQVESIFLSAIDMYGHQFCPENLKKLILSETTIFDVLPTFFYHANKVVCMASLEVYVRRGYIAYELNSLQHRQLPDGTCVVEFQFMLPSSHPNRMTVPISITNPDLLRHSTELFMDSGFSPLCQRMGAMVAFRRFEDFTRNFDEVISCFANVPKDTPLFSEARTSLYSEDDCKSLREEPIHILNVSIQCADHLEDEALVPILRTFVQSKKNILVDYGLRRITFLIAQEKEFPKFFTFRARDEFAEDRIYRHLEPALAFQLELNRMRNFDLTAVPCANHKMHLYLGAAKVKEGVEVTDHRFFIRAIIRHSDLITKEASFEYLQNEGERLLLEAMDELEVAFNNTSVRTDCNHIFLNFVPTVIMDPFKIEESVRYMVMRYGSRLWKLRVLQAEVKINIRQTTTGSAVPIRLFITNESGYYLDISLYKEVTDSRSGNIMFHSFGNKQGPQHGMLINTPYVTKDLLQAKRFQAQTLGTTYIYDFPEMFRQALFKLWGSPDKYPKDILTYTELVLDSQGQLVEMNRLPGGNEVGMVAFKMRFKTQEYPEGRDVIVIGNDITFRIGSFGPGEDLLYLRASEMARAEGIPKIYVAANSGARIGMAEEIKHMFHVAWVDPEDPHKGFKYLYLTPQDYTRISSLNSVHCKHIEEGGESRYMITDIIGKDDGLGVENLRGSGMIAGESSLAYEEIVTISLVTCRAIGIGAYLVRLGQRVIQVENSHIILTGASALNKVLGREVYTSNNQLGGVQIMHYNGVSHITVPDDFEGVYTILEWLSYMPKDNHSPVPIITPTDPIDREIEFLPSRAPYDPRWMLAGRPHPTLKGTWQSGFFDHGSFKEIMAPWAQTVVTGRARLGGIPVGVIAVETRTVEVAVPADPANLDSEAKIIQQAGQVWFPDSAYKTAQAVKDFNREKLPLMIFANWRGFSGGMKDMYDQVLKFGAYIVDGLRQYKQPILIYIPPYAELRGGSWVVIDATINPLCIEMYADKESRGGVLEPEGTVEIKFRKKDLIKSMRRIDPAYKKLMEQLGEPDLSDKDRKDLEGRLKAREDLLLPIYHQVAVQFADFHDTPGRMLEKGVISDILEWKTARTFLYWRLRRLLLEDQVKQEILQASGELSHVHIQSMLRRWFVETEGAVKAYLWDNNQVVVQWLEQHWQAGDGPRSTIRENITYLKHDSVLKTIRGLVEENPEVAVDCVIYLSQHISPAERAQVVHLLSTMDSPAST

Row | Structure (SMILES) | IC50 [nM]
1 | CCOc1ccc(N2CCC(c3ccc([C@H](C)NC(=O)Cn4ccnc4)cc3)CC2)cc1 [Example 6.28] | 1300
2 | CC(=O)N[C@@H](C)c1ccc(C2CCN(c3ncc(C(=O)N(C)C4CCN(C)C4)cn3)CC2)cc1 (stereo partly shown) [Example 18.84] | 18100
3 | CC(=O)N[C@@H](C)c1ccc(C2CCN(c3ncc(C(=O)NCCC4CCCN4C)cn3)CC2)cc1 (stereo partly shown) [Example 18.56] | 14900
4 | CCC(NC(C)=O)c1ccc(C2CCN(c3ccc(OC4CC4)cc3)CC2)cc1 (stereo not shown) [Example 1.204] | 450
5 | CCC(NC(C)=O)c1ccc(C2CCN(c3ccc(OCC4CC4)cc3)CC2)cc1 (stereo not shown) [Example 1.203] | 620
6 | CC(C)Oc1ccc(N2CCC(c3ccc([C@H](C)NC(=O)C4CC4)cc3)CC2)cc1 [Example 1.119] | 260
7 | CCOc1ccc(N2CCC(c3ccc([C@H](C)NC(=O)c4ccncc4)cc3)CC2)cc1 [Example 6.40] | 1200
8 | COC[C@H]1CCCN1C(=O)c1cnc(N2CCC(c3ccc([C@H](C)NC(C)=O)cc3)CC2)nc1 [Example 18.27] | 10400
9 | CCOc1ccc(N2CCC(c3ccc([C@H](C)NC(=O)N(C)C(C)C)cc3)CC2)cc1 [Example 14.53] | 4900
10 | CC(=O)N[C@@H](C)c1ccc(C2CCN(c3ccnc(O[C@H]4CCOC4)n3)CC2)cc1 [Example 11.18] | 6200
11 | C[C@H](NC(=O)C1CC1)c1ccc(C2CCN(c3ncc(-c4ccc5c(c4)CCO5)cn3)CC2)cc1 [Example 10.98] | 900
12 | CCCN(C)C(=O)N[C@@H](C)c1ccc(C2CCN(c3ccc(OCC)cc3)CC2)cc1 [Example 14.54] | 1100
13 | CCOc1ccc(N2CCC(c3ccc([C@H](C)NC(=O)CC#N)cc3)CC2)cc1 [Example 6.1, (S)-2-Cyano-N-(1-{4-[1-(4-ethoxy-phenyl)-piperidin-4-yl]-phenyl}-ethyl)-acetamide] | 460
14 | CC(=O)N[C@@H](C)c1ccc(C2CCN(c3cc(NCCC(C)C)ncn3)CC2)cc1 [Example 11.70] | 4500
15 | CC(=O)N[C@@H](C)c1ccc(C2CCN(c3ncc(-c4ccc(C#N)cc4C)cn3)CC2)cc1 [Example 10.61] | 530
16 | CC(=O)N[C@@H](C)c1ccc(C2CCN(c3ncc4nc(-c5ccsc5)oc4n3)CC2)cc1 [Example 5.5] | 20
17 | CCOc1ccc(-c2cnc(N3CCC(c4ccc([C@H](C)NC(C)=O)cc4)CC3)nc2)cc1C [Example 10.125] | 640
18 | CC(=O)N[C@@H](C)c1ccc(C2CCN(c3ncc(-c4ccc(C(F)(F)F)nc4)cn3)CC2)cc1 [Example 10.85] | 2600
19 | CC(=O)N[C@@H](C)c1ccc(C2CCN(c3ccc(-c4nc5ccccc5[nH]4)cn3)CC2)cc1 [Example 5.25] | 2400

Row | Structure (SMILES) | IC50 [nM]
20 | CC(=O)N[C@@H](C)c1ccc(C2CCN(c3cc(N4Cc5ccccc5C4)ncn3)CC2)cc1 [Example 11.89] | 760
21 | CSc1ccc(-c2cnc(N3CCC(c4ccc([C@H](C)NC(C)=O)cc4)CC3)nc2)c(C(F)(F)F)c1 [Example 10.77] | 1600
22 | CCC(=O)N[C@@H](C)c1ccc(C2CCN(c3ccnc(Oc4cncnc4)c3)CC2)cc1 [Example 1.169] | 1700
23 | CC(=O)N[C@@H](C)c1ccc(C2CCN(c3ncc(C(=O)NC4COC4)cn3)CC2)cc1 [Example 18.39] | 15200
24 | C[C@H](NC(=O)C1CC1)c1ccc(C2CCN(c3nc(N(C)CC4CC4)ncc3C#N)CC2)cc1 [Example 11.126] | 810
25 | CC(=O)N[C@@H](C)c1ccc(C2CCN(c3ncc(C(=O)Nc4ccc(CN(C)C)cc4)cn3)CC2)cc1 [Example 18.86] | 11300
26 | CC(=O)N[C@@H](C)c1ccc(C2CCN(c3ncc(C(=O)NCc4ncccn4)cn3)CC2)cc1 [Example 18.34] | 3500
27 | CC(=O)N[C@@H](C)c1ccc(C2CCN(c3ccnc(N[C@H](C)C(C)C)n3)CC2)cc1 [Example 11.75] | 3800
28 | CCCOc1ccc(N2CCC(c3ccc([C@H](C)NC(=O)C4CC4)cc3)CC2)cc1 [Example 1.23] | 50
29 | CC(=O)N[C@@H](C)c1ccc(C2CCN(c3ncc(-c4ccc5sccc5c4)cn3)CC2)cc1 [Example 10.75] | 50
30 | CC(=O)N[C@@H](C)c1ccc(C2CCN(c3ccnc(N4CCc5ccccc54)n3)CC2)cc1 [Example 11.49] | 350
31 | CCCOc1ccc(N2CCC(c3ccc(CC(C)NC(C)=O)cc3)CC2)cc1 (stereo not shown) [Example 2.3] | 990
32 | C[C@H](NC(=O)C1CC1)c1ccc(C2CCN(c3cc(OC4CCC4)ncn3)CC2)cc1 [Example 20.2] | 220
33 | CC(=O)N[C@@H](C)c1ccc(C2CCN(c3ncc(C(=O)Nc4ccccc4)cn3)CC2)cc1 [Example 18.95] | 190
34 | C[C@H](NC(=O)C1CC1)c1ccc(C2CCN(c3ncc(C4CC4)cn3)CC2)cc1 [Example 4.303] | 15600
35 | CCOc1ccc(N2CCC(c3ccc([C@H](C)NC(=O)N(CC)CC)cc3)CC2)cc1 [Example 14.67] | 1900
36 | CC(=O)N[C@@H](C)c1ccc(C2CCN(c3ncc(-c4ccc5[nH]ccc5c4)cn3)CC2)cc1 [Example 10.46] | 140
37 | CCOc1ccc(N2CCC(c3ccc([C@H](C)NC(=O)c4ccns4)cc3)CC2)cc1 [Example 6.26] | 280
38 | CC(=O)N[C@@H](C)c1ccc(C2CCN(c3ncc(C(=O)NC4(C#N)CC4)cn3)CC2)cc1 [Example 18.70] | 17400

Results, then the compound that gave them:

Row | IC50 [nM] | Structure (SMILES)
39 | 210 | CC(=O)N[C@@H](C)c1ccc(C2CCN(c3cccc(C)n3)CC2)cc1 [Example 5.42]
40 | 2300 | CC(=O)N[C@@H](C)c1ccc(C2CCN(c3nc4ccccc4nc3C)CC2)cc1 [Example 4.32]
41 | 120 | CCCOc1cc(N2CCC(c3ccc([C@H](C)NC(C)=O)cc3)CC2)ccn1 [Example 19.23]
42 | 240 | CCC(CC)Oc1cc(N2CCC(c3ccc([C@H](C)NC(C)=O)cc3)CC2)ccn1 [Example 19.24]
43 | 160 | CC(=O)N[C@@H](C)c1ccc(C2CCN(c3ccc(-c4cccs4)nc3)CC2)cc1 [Example 15.11]
44 | 3200 | CCCC(C)Oc1ccc(N2CCC(c3ccc([C@H](C)NC(C)=O)cc3)CC2)cc1C#N (stereo partly shown) [Example 8.57]
45 | 1100 | CC(=O)N[C@@H](C)c1ccc(C2CCN(c3noc4ccccc34)CC2)cc1 [Example 4.30]
46 | 270 | CC(=O)N[C@@H](C)c1ccc(C2CCN(c3ncc(-c4cncc(F)c4)cn3)CC2)cc1 [Example 10.69]
47 | 120 | CC(=O)N[C@@H](C)c1ccc(C2CCN(c3ccc(OC(C)C)cc3C#N)CC2)cc1 [Example 1.50]
48 | 1600 | CC(=O)N[C@@H](C)c1ccc(C2CCN(c3cc(C(F)(F)F)ncn3)CC2)cc1 [Example 4.6]
49 | 360 | COc1ccc(N2CCC(c3ccc([C@H](C)NC(C)=O)cc3)CC2)c(F)c1 [Example 1.96]
50 | 1400 | CCCCOc1ccc(N2CCC(c3ccc([C@H](C)NC(C)=O)cc3)CC2)cc1C [Example 8.40]
51 | 80 | CC(=O)N[C@@H](C)c1ccc(C2CCN(c3cc(OC4CCC4)ncn3)CC2)cc1 [Example 11.109]
52 | 100 | Cc1cc(OC2CC2)ccc1N1CCC(c2ccc([C@H](C)NC(=O)N(C)C)cc2)CC1 [Example 1.57]
53 | 750 | CC(=O)N[C@@H](C)c1ccc(C2CCN(c3ccnc(OCc4ccccc4F)c3)CC2)cc1 [Example 19.31]
54 | 640 | CC(=O)N[C@@H](C)c1ccc(C2CCN(c3ncc(-c4ccc(C)nc4)cn3)CC2)cc1 [Example 10.33]
55 | 290 | CCOc1ccc(N2CCC(c3ccc([C@H](C)NC(C)=O)cc3)CC2)cc1F [Example 8.17]
56 | 5000 | CC(=O)N[C@@H](C)c1ccc(C2CCN(c3cc(NC(C)C)ncn3)CC2)cc1 [Example 11.44]

Row | IC50 [nM] | Structure (SMILES)
57 | 3500 | CCOc1ccc(N2CCC(c3ccc([C@H](C)NC(=O)N(C)C)cc3)CC2)c(OCC)c1 [Example 1.129]
58 | 3300 | CCCCNc1cc(N2CCC(c3ccc([C@H](C)NC(C)=O)cc3)CC2)ncn1 [Example 11.62]
59 | 6400 | CCCOc1ccc(N2CCC(c3ccc([C@@H](C)NC(C)=O)cc3)CC2)c(OC)c1 [Example 15.23]
60 | 340 | COC(=O)N[C@@H](C)c1ccc(C2CCN(c3ccc(OC(C)C)cc3)CC2)cc1 [Example 1.135]
61 | 130 | CC(=O)N[C@@H](C)c1ccc(C2CCN(c3ccc(OCC4CC4)cc3C#N)CC2)cc1 [Example 13.2]
62 | 23700 | CC(=O)N[C@@H](C)c1ccc(C2CCN(c3ccc4c(c3)ncn4C)CC2)cc1 [Example 1.72]
63 | 230 | CC(=O)N[C@@H](C)c1ccc(C2CCN(c3ccnc(C(C)C)n3)CC2)cc1 [Example 4.25]
64 | 2200 | CC(=O)N[C@@H](C)c1ccc(C2CCN(c3ccc(OC4CCCC4)c(C#N)c3)CC2)cc1 [Example 8.36]
65 | 1000 | CC(=O)N[C@@H](C)c1ccc(C2CCN(c3cccc(C#N)n3)CC2)cc1 [Example 5.19]
66 | 700 | CCC(=O)N[C@@H](C)c1ccc(C2CCN(c3ccc(OCC4CC4)cc3F)CC2)cc1 [Example 1.148]
67 | 180 | CC(=O)N[C@@H](C)c1ccc(C2CCN(c3ccc4c(c3)OCCCO4)CC2)cc1 [Example 1.44]
68 | 160 | CC(=O)N[C@@H](C)c1ccc(C2CCN(c3ccc(OCC4CCC4)c(F)c3)CC2)cc1 [Example 9.42]
69 | 1400 | CCOc1ncc(N2CCC(c3ccc([C@H](C)NC(C)=O)cc3)CC2)cn1 [Example 16.1, (S)—N-(1-M{4-[1-(2-Ethoxy-pyrimidin-5-yl)-piperidin-4-yl]-phenyl}-ethyl)-acetamide]
70 | 420 | CC(=O)N[C@@H](C)c1ccc(C2CCN(c3ccc(Br)c(C)n3)CC2)cc1 [Example 5.23]
71 | 5200 | CC(=O)N[C@@H](C)c1ccc(C2CCN(c3ccc4c(n3)C(=O)CC4)CC2)cc1 [Example 5.27]
72 | 180 | CC(=O)N[C@@H](C)c1ccc(C2CCN(c3ccc(OC(C)C)nc3)CC2)cc1 [Example 1.60]
73 | 550 | CC(=O)N[C@@H](C)c1ccc(C2CCN(c3cccc(OCc4ccccc4)c3)CC2)cc1 [Example 9.17]
